Where “and” joins values, the source holds several entries; their conditions need not be identical. Equal entries are not always repeated. Where two headings read alike, the source gives them in different places. *1 amine or outer side, *2 acyl side, *3 side chain or, on linkers, in order; H or OH if unused. Where a SMILES comes first, the peptide text is derived from it. Bridges are numbered along the chain shown (N, C = ends). [ ]: non-standard residue; d: D form. X2 = O=C([C@@H]1C[C@H](n2cc([C]34[CH]5[CH]6[CH]7[CH]3[Fe]6754389%10[CH]4[CH]3[CH]8[CH]9[CH]4%10)nn2)CN1[*:1])[*:2]; X17 = O=C([C@@H]1C[C@H](n2cc(C3=CC=C[CH]3[Fe][CH]3C=CC=C3)nn2)CN1[*:1])[*:2]; X15 = CC(C)(C)c1ccc(-c2cn([C@H]3C[C@@H](C(=O)[*:2])N([*:1])C3)nn2)cc1; X1 = O=C([C@@H]1C[C@H](n2cc(-c3ccc(-c4cccs4)cc3)nn2)CN1[*:1])[*:2]; X16 = CC(C)c1ccc(-c2cn([C@H]3C[C@@H](C(=O)[*:2])N([*:1])C3)nn2)cc1; X9 = CCc1ccc(-c2cn([C@H]3C[C@@H](C(=O)[*:2])N([*:1])C3)nn2)cc1

One data set addresses T1, wild type gp120 YU-2 (Human immunodeficiency virus type 1 group M subtype B, UniProt P35961).
T1 construct: into 30 μM of YU2 full-length gp120 at 25° C; made in house; host or cells: HEK 293F
Put plainly: Isothermal titration calorimetry binding to gp120. Also noted: species or system HIV-1. As to conditions: for ΔH / ΔS / −TΔS: ITC, 25° C. As for the experimental part: FIGS. 9A-9C illustrate cPT binding and thermodynamic profile of monomeric wild type gp120 YU-2 for cPTs 3 (FIGS. 9A and 9C) and 36 (FIGS. 9B and 9C). Compound solution, 390 μM (for 3) or 200 μM (for 36), was titrated in 8 μL steps into 30 μM of YU2 full-length gp120 at 25° C. in the reaction chamber of a VP-ITC instrument using 1×PBS buffer at pH 7.3. The resulting heat changes were integrated, and the values obtained were fitted to a quadratic binding equation (one site binding model).
cPT dissociation constants were determined at 25° C. on a VP-Isothermal Titration calorimeter (VP-ITC) system (MicroCal™, GE Healthcare, Freiburg). 200 μM (for 36) or 390 μM (for 3) compound solutions were in 8 μL steps titrated into 30 μM of wild type gp120 YU-2 at 25° C. using 1×PBS buffer at pH 7.3. The resulting heat change upon injection was integrated over a time range of 300 sec, and the obtained values were fitted to a standard single-site binding model using ORIGIN®.
On the technique in general: In ITC the heat of successive injections is recorded.

Data set [1] has as its target T2, HIV-1YU-2 gp120 binding to mAb 17b (Human immunodeficiency virus type 1 group M subtype B, UniProt P35961).
T2 construct: The purified DNA encoding gp120 YU-2 was transfected into HEK 293F cells; made in house; host or cells: HEK 293F
The data set is described as follows: SPR competition assay: inhibition of gp120 binding to 17b (co-receptor surrogate). As to conditions: for inhibition of gp120 binding to 17b (in words): SPR competition. As for the experimental part:
(§1) SPR experiments are performed on a Biacore 3000 optical biosensor (GE Healthcare). All experiments are carried out at 25° C. using standard PBS buffer pH=7.4 with 0.005% surfactant Tween and 2% DMSO.
(§2) Three flow cells in the CM5 chip were used for amine coupling of different ligands through standard 1-ethyl-3-(3-(dimethylamino) propyl) carbodiimide (EDC)/N-hydroxysuccinamide (NHS) chemistry. Flow cell 1 containing 2000 RUs of immobilized antibody 2B6R (α-human IL5R) served as a negative control for flow cells 2 and 3 each of which contained 2000 RUs of immobilized CD4 and 17b respectively.
(§3) For kinetic analyses, typically 2000-3000 RUs of protein reagents are immobilized on SPR chips, and analytes are passed over the surface at 50-100 μL/min. Surface regeneration is achieved by a 5 μL injection of 10 mM HCl solution at 100 μL/min. […] Regeneration of the surface is achieved by a single 10 second pulse of 1.3 M NaCl/35 mM NaOH and single 5-second pulse of 10 mM glycine, pH 1.5, for sCD4 and mAb 17b, respectively.
(§4) Data analysis of SPR competition data was performed using BIAevaluation v4.1.1 software (GE). To correct for nonspecific binding, response signals from buffer injection and from control flow cell were subtracted from all sensorgrams. Inhibition potencies were determined by calculating the inhibitor concentration required for 50% inhibition of maximal binding (IC50). The inhibition curve was plotted and then fitted using the four-parameter equation as shown below using OriginPro 8 graphing software.
(§5) The cyclic peptides of the invention are tested against HIV-1 gp120 by SPR competition assays. A mixture of the cyclic peptide/gp120 solutions is passed over SPR chip immobilized with CD4 and 17b separately. The competition assay evaluates the ability of each peptide to inhibit the binding between gp120 and both soluble CD4 and 17b antibody, a surrogate for co-receptor.

In data set [2] the target is T3, HIV-1YU-2 gp120 binding to sCD4 (Human immunodeficiency virus type 1 group M subtype B, UniProt P35961).
T3 construct: The purified DNA encoding gp120 YU-2 was transfected into HEK 293F cells; made in house; host or cells: HEK 293F
The data set is described as follows: SPR competition assay: inhibition of gp120 binding to CD4. As to conditions: for inhibition of gp120 binding to CD4 (in words): SPR competition. The procedure: as §1, §2, §3, §4, §5

The test system of another data set is HOS.T4.R5 cells. As for the experimental part: cPTs 36 and 37 were tested for cytotoxicity in vitro with HOS.T4.R5 cells. The latter were seeded at […] per well and incubated with peptides as described elsewhere herein for the infection inhibition assays. Cell viability was determined using the tetrazolium salt premix reagent WST-1 from TaKaRa Bio, Inc., by following the manufacturer's protocol. The formazan product was measured 24 h post-exposure using a microplate reader (Molecular Devices) at an absorbance wavelength of 450 nm.

Where [3] appears, read: read-out: HIV-1Bal.01 infection inhibition IC50, HIV-1Bal.01 pseudovirus, HOS.T4.R5 cells.
The mark [4] stands for this setting: read-out: HIV-1 IC50, HIV-1Bal.01 infection inhibition, Table 1.

Regarding `CC[C@H](C)[C@@H]1NC(=O)[C@H](CC(N)=O)NC(=O)[C@@H](N)CC(=O)NCCCC[C@@H](C(N)=O)NC(=O)[C@H](Cc2c[nH]c3ccccc23)NC(=O)[C@@H]2C[C@H](n3cc([C]45[CH]6[CH]7[CH]8[CH]4[Fe]786549%10%11[CH]5[CH]4[CH]9[CH]%10[CH]5%11)nn3)CN2C1=O` (stereo partly shown) [cPT 3] (H-DNI[X2]WK-NH2; lactam 1-6), on wild type gp120 YU-2, the ΔH was -5.96 kcal/mol and -5.96 ± 0.13 kcal/mol; the ΔS turned out to be 0.00922 kcal/mol; the “−TΔS” value was -2.75 kcal/mol.

With `CC[C@H](C)[C@@H]1NC(=O)[C@H](CC(N)=O)NC(=O)[C@@H](N)CC(=O)NCCCC[C@@H](C(N)=O)NC(=O)[C@H](Cc2c[nH]c3ccccc23)NC(=O)[C@@H]2C[C@H](n3cc(C4=CC=C[CH]4[Fe][CH]4C=CC=C4)nn3)CN2C1=O` (stereo partly shown) [cPT 3] (H-DNI[X17]WK-NH2; lactam 1-6), on wild type gp120 YU-2, the equilibrium dissociation constant (Kd) worked out at 415 nM.

For the compound `CC[C@H](C)[C@@H]1NC(=O)[C@H](CC(N)=O)NC(=O)[C@@H](N)CC(=O)NCCCC[C@@H](C(N)=O)NC(=O)[C@H](Cc2c[nH]c3ccccc23)NC(=O)[C@@H]2C[C@H](n3cc(-c4ccc(-c5cccs5)cc4)nn3)CN2C1=O` [cPT 36, (3S,6S,14S,17S,20S,24S,25aS)-3-((1H-indol-3-yl)methyl)-14-amino-17-(2-amino-2-oxoethyl)-20-((S)-sec-butyl)-1,4,12,15,18,21-hexaoxo-24-(4-(4-(thiophen-2-yl)phenyl)-1H-1,2,3-triazol-1-yl)tetracosahydro-1H-pyrrolo[2,1-f][1,4,7,10,13,18]hexaazacyclotricosine-6-carboxamide] (H-DNI[X1]WK-NH2; lactam 1-6), in data set [1], the concentration for half-maximal inhibition (IC50) was roughly 56 nM; the “inhibition of gp120 binding to 17b (in words)” value is “inhibited gp120 binding to both CD4 and 17b”. In addition, in data set [1] (listed as 29N-2), the “inhibition of gp120 binding to 17b (in words)” value was “dual inhibitors of both CD4 and 17b binding to gp120”. In data set [2], the half-maximal inhibitory concentration (IC50) was roughly 66 nM; the “inhibition of gp120 binding to CD4 (in words)” value was “inhibited gp120 binding to both CD4 and 17b”. For the same compound, the “inhibition of gp120 binding to CD4 (in words)” value in data set [2] (listed as 29N-2) is “dual inhibitors of both CD4 and 17b binding to gp120”. Also, the “fold improvement in potency compared to 23” value in the data set on HIV-1Bal.01 (infection inhibition) was greater than 2 fold. Besides, the IC50 in the data set with HIV-1Bal.01 (setting [3]) was 105 nM and ~100 nM. The IC50 in the data set on HIV-1Bal.01 (read-out: HIV-1Bal.01 infection inhibition IC50, HIV-1Bal.01 pseudovirus, HOS.T4.R5 cells, listed as 29N-2) was roughly 105 nM. Also, in the data set with HOS.T4.R5 cells (estimated from the IC50 and the CC50 values), the “selectivity index (SI)” value is greater than 1000. In addition, in the data set on HOS.T4.R5 cells (highest concentrations used 100 μM, 24 h post-exposure), the “cytotoxicity (cell viability)” value is reported as “no cytotoxicity was detected”. Further, at wild type gp120 YU-2, the affinity, expressed as Kd, was 350 nM; the ΔH was -4.07 ± 0.06 kcal/mol; the ΔS worked out at 0.0159 kcal/mol; the “−TΔS” value was -4.74 kcal/mol.

For the compound `CCc1ccc(-c2cn([C@H]3C[C@H]4C(=O)N[C@@H](Cc5c[nH]c6ccccc56)C(=O)N[C@H](C(N)=O)CCCCNC(=O)C[C@H](N)C(=O)N[C@@H](CC(N)=O)C(=O)N[C@@H]([C@@H](C)CC)C(=O)N4C3)nn2)cc1` [compound 20] (H-DNI[X9]WK-NH2; lactam 1-6), the IC50 in the data set with HIV-1Bal.01 (setting [3]) was roughly 1200 nM; in the data set on HIV-1Bal.01 (setting [4]), 1200 ± 500 nM.

In the case of `CC[C@H](C)[C@@H]1NC(=O)[C@H](CC(N)=O)NC(=O)[C@@H](N)CC(=O)NCCCC[C@@H](C(N)=O)NC(=O)[C@H](Cc2c[nH]c3ccccc23)NC(=O)[C@@H]2C[C@H](n3cc(-c4ccc(C(C)C)cc4)nn3)CN2C1=O` [compound 21] (H-DNI[X16]WK-NH2; lactam 1-6), the 50% inhibitory concentration (IC50) with HIV-1Bal.01 (setting [3]) was roughly 900 nM; in the data set with HIV-1Bal.01 (setting [4]) it was 900 ± 45 nM.

Regarding `CC[C@H](C)[C@@H]1NC(=O)[C@H](CC(N)=O)NC(=O)[C@@H](N)CC(=O)NCCCC[C@@H](C(N)=O)NC(=O)[C@H](Cc2c[nH]c3ccccc23)NC(=O)[C@@H]2C[C@H](n3cc(-c4ccc(C(C)(C)C)cc4)nn3)CN2C1=O` [compound 22] (H-DNI[X15]WK-NH2; lactam 1-6), the half-inhibitory concentration (IC50) with HIV-1Bal.01 (setting [3]) was roughly 350 nM; with HIV-1Bal.01 (setting [4]) it was 350 ± 25 nM.

What is called Kd is the concentration at which binding is half-saturated. A low value points to a tighter complex. The IC50 is the point on the concentration scale where inhibition reaches its midpoint.

Source of the values: US12421279B2, “Cyclic peptide antiviral agents and methods using same” (priority 2016, dated 2025).
